pEC50: −log10 of the molar value.
Columns and labels:
[1] = molecular target: T1, GlunN1/GluN2A glutamate receptors (Homo sapiens, UniProt Q05586+Q12879); assay: Whole-cell patch clamp of mammalian cells (Ionworks Barracuda, IWB), NMDA potentiation (PAM), GluN2A; type: cell-based; conditions: peak current amplitude; for GluN2A PCA IWB Ephys % potentiation at 3 μM: 3 μM test compound, co-application with EC20 L-glutamate and 30 μM glycine; for pEC50: 8-point concentration-response, read-out: GluN2A PCA EC50; for Emax: maximal potentiation, read-out: GluN2A PCA Emax (%)
T1 construct: expressed in transfected cells
Method: (§1) NMDA potentiation in mammalian cells which expressed NMDA receptors was assessed using the whole cell patch clamp to determine the PAM activity of compounds as described below. An automatic patch-clamp system can be used determine the […] activity of compounds as described below.
(§2) The whole-cell patch-clamp technique was used to investigate the effects of positive allosteric modulating activity of test compounds on GlunN1/GluN2A and GluN2B glutamate receptors expressed in mammalian cells.
HEK293 cells were transformed with adenovirus 5 DNA and transfected with cDNA encoding the human GRIN1/GRIN2A genes. Stable transfectants were selected using G418 and Zeocin-resistance genes incorporated into the expression plasmid and selection pressure maintained with G418 and Zeocin in the medium. Cells were cultured in Dulbecco's Modified Eagle Medium/Nutrient Mixture (D-MEM/F-12) supplemented with 10% fetal bovine serum, 100 μg/ml penicillin G sodium, 100 μg/ml streptomycin sulphate, 100 μg/ml Zeocin, 5 μg/ml blasticidin and 500 μg/ml G418.
(§3) Test article effects were evaluated in 8-point concentration-response format (4 replicate wells/concentration). All test and control solutions contained 0.3% DMSO and 0.01% Kolliphor® EL (C5135, Sigma). The test article formulations were loaded in a 384-well compound plate using an automated liquid handling system (SciClone ALH3000, Caliper LifeSciences). The measurements were performed using Ion Works Barracuda platform following this procedure:
(§4) • a) Intracellular solution (mM): 50 mM CsCl, 90 mM CsF, 2 mM MgCl2, 5 mM EGTA, 10 mM HEPES. Adjust to pH 7.2 with CsOH. • b) Extracellular solution, HB-PS (composition in mM): NaCl, 137; KCl, 1.0; CaCl2, 5; HEPES, 10; Glucose, 10; pH adjusted to 7.4 with NaOH (refrigerated until use). • c) Holding potential: −70 mV, potential during agonist/PAM application: −40 mV. Recording Procedure: • a) Extracellular buffer will be loaded into the PPC plate wells (11 μL per well). Cell suspension will be pipetted into the wells (9 μL per well) of the PPC planar electrode. • b) Whole-cell recording configuration will be established via patch perforation with membrane currents recorded by on-board patch clamp amplifiers. • c) Two recordings (scans) will be performed. First, during pre-application of test article alone (duration of pre-application—5 min) and second, during test articles and agonist (EC20 L-glutamate and 30 μM glycine) co-application to detect positive modulatory effects of the test article.
(§5) Test Article Administration: The first pre-application will consist of the addition of 20 μL of 2× concentrated test article solution and, second, of 20 μL of 1× concentrated test article and agonist at 10 μL/s (2 second total application time).
(§6) Potentiating effect of positive allosteric modulators (PAM) on the channel will be calculated as % activation=(IPAM/IEC10-30)×100%−100% where IPAM will be the L-glutamate EC10-30-elicited current in presence of various concentrations of test articles and IEC20 will be the mean current elicited with L-glutamate EC20. PAM concentration-response data will be fitted to an equation of the form: % Activation=% L-glutamate EC20+{(% MAX−% L-glutamate EC20)/[1+([Test]/EC50)^N]} where [Test] will be the concentration of PAM (test article), EC50 will be the concentration of PAM producing half-maximal activation, N will be the Hill coefficient, % L-glutamate EC20 will be the percentage of the current Elicited with L-glutamate EC20, % MAX is the percentage of the current activated with the highest dose of PAM co-admitted with L-glutamate EC20 and % Activation will be the percentage of the current elicited with L-glutamate EC10-30 at each PAM concentration.
(§7) The maximal amplitude of the evoked currents are measured and defined as Peak Current Amplitude (PCA).

[2] = molecular target: T2, GluN2B glutamate receptors (Homo sapiens, UniProt Q05586+Q13224); assay: Whole-cell patch clamp of mammalian cells (Ionworks Barracuda, IWB), NMDA potentiation (PAM), GluN2B; type: cell-based; conditions: peak current amplitude; for GluN2B PCA IWB Ephys % potentiation at 3 μM: 3 μM test compound, co-application with EC20 L-glutamate and 30 μM glycine; for pEC50: 8-point concentration-response, read-out: GluN2B PCA EC50; for Emax: maximal potentiation, read-out: GluN2B PCA Emax (%)
T2 construct: expressed in transfected cells
Method: as §1, §2, §3, §4, §5, §6, §7

T2 sequence (Q13224 27-1484, other chains not shown): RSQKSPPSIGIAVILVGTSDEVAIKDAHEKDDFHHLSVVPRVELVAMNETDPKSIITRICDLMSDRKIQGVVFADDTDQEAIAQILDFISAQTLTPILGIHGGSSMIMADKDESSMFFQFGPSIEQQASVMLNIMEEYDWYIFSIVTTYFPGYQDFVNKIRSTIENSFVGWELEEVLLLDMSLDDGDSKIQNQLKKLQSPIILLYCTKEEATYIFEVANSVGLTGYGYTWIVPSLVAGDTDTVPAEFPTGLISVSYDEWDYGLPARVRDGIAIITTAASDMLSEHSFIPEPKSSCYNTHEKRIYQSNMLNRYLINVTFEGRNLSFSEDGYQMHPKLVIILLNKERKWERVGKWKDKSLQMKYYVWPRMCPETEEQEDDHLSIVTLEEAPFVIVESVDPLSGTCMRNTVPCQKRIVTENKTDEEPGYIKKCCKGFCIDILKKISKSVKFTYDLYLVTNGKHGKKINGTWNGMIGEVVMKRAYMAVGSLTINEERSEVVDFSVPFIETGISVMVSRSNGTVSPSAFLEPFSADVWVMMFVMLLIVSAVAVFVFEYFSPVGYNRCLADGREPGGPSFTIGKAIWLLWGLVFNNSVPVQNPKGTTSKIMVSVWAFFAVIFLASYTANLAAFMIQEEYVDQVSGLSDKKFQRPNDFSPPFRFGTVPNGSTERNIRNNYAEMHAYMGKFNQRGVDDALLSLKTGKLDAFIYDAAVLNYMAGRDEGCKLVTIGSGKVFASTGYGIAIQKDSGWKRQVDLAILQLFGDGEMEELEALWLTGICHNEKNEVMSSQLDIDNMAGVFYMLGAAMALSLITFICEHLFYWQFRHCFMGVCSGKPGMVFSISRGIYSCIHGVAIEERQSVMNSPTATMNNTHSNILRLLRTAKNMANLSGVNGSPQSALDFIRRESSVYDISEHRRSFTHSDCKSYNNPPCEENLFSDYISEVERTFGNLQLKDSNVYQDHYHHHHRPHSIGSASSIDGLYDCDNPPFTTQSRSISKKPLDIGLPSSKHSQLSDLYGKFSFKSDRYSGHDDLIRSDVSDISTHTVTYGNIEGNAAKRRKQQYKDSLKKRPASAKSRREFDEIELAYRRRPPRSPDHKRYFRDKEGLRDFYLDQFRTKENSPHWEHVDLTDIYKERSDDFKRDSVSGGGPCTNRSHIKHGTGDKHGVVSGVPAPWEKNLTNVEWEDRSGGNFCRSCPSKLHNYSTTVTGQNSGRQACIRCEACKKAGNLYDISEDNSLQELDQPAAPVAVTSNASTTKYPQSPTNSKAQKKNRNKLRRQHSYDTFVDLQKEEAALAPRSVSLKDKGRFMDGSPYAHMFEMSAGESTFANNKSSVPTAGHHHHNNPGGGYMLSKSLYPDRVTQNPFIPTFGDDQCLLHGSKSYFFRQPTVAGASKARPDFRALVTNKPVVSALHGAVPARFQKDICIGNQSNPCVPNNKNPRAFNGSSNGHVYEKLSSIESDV
T1 sequence (Q12879 23-1464, other chains not shown): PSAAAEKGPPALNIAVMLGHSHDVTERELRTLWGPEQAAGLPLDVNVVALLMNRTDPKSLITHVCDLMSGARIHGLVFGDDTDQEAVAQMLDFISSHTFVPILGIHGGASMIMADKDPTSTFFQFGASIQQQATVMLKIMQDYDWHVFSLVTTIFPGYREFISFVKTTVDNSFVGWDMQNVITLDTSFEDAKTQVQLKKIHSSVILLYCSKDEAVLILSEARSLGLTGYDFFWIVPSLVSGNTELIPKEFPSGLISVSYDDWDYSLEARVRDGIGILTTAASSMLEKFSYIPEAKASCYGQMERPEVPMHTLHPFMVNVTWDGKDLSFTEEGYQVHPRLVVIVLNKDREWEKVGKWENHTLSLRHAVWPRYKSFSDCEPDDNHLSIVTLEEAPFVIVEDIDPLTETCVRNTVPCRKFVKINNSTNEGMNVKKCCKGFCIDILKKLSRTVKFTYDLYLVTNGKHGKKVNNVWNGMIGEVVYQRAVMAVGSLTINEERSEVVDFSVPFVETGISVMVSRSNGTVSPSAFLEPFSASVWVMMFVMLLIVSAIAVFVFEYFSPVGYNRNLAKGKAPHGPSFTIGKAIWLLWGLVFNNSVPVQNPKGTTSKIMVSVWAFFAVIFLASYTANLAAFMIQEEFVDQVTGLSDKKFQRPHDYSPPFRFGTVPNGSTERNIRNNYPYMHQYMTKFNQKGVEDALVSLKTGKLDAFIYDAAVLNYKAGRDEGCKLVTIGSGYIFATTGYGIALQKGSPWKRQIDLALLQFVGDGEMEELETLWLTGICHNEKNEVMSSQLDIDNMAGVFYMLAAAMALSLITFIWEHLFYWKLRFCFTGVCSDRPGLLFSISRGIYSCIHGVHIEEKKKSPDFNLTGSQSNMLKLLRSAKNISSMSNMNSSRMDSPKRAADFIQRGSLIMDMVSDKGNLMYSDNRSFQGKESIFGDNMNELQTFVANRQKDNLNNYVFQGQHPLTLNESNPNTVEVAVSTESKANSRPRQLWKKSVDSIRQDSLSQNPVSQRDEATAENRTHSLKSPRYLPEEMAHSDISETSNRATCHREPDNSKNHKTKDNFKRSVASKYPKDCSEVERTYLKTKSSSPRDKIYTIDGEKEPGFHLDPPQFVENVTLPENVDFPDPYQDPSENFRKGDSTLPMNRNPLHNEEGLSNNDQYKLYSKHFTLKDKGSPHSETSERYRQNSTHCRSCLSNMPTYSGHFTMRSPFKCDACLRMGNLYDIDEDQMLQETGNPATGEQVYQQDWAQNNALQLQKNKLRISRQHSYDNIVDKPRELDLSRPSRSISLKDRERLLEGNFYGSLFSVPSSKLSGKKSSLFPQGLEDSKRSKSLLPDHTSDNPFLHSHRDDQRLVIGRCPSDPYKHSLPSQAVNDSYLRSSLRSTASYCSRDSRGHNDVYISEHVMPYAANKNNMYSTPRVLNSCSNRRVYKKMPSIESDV

SMILES | GluN2A PCA IWB Ephys % potentiation at 3 μM [1] | pEC50 [1] | Emax [1] [%] | GluN2B PCA IWB Ephys % potentiation at 3 μM [2] | pEC50 [2] | Emax [2] [%]
C[C@H](CCC(C)(C)O)[C@H]1CC[C@H]2[C@@H]3CC[C@H]4C[C@@](C)(O)CC[C@]4(C)[C@H]3C(=O)C[C@]12C [Compound 1] | B (“B” indicates potentiation of >100%) | 6.00 to 6.30 | 100 to 500 | B (“B” indicates potentiation of >100%) | 6.00 to 6.30 | 100 to 500
C[C@H](CCC(C)(C)O)[C@H]1CC[C@H]2[C@@H]3CC[C@H]4C[C@@H](O)CC[C@]4(C)[C@H]3C(=O)C[C@]12C [Compound 2] | A (“A” indicates % potentiation up to 100%) | 5.00 to 6.00 | < 100 | A (“A” indicates % potentiation up to 100%) | 6.00 to 6.30 | < 100
C[C@H](CCC(C)(C)O)[C@H]1CC[C@H]2[C@@H]3CC=C4C[C@@H](O)CC[C@]4(C)[C@H]3[C@@H](O)C[C@]12C [Compound 3] | A (“A” indicates % potentiation up to 100%) | ≤ 5.00 | < 100 | B (“B” indicates potentiation of >100%) | 6.00 to 6.30 | 100 to 500
C[C@H](CCC(C)(C)O)[C@H]1CC[C@H]2[C@@H]3CC=C4C[C@@H](O)CC[C@]4(C)[C@H]3C(=O)C[C@]12C [Compound 4] | B (“B” indicates potentiation of >100%) | 6.30 to 7.00 | 100 to 500 | B (“B” indicates potentiation of >100%) | 6.30 to 7.00 | 100 to 500
CC[C@]1(O)CC[C@@]2(C)C(=CC[C@H]3[C@@H]4CC[C@H]([C@H](C)CCC(C)(C)O)[C@@]4(C)CC(=O)[C@@H]32)C1 [Compound 5] | – | 6.30 to 7.00 | 100 to 500 | – | 6.30 to 7.00 | 100 to 500
CC[C@]1(O)CC[C@@]2(C)C(=CC[C@H]3[C@@H]4CC[C@H]([C@H](C)CC[C@@H](O)C(C)C)[C@@]4(C)CC(=O)[C@@H]32)C1 [Compound 6] | – | 7.00 to 9.00 | 100 to 500 | – | 7.00 to 9.00 | 100 to 500
CC[C@]1(O)CC[C@@]2(C)C(=CC[C@H]3[C@@H]4CC[C@H]([C@H](C)CC[C@H](O)C(C)C)[C@@]4(C)CC(=O)[C@@H]32)C1 [Compound 7] | – | 7.00 to 9.00 | 100 to 500 | – | 7.00 to 9.00 | 100 to 500
CC[C@]1(O)CC[C@@]2(C)C(=CC[C@H]3[C@@H]4CC[C@H]([C@H](C)CC[C@H](O)C(C)(C)C)[C@@]4(C)CC(=O)[C@@H]32)C1 [Compound 9] | – | 7.00 to 9.00 | > 500 | – | 7.00 to 9.00 | 100 to 500
CC[C@]1(O)CC[C@@]2(C)C(=CC[C@H]3[C@@H]4CC[C@H]([C@H](C)CC[C@@H](O)C(C)(C)C)[C@@]4(C)CC(=O)[C@@H]32)C1 [Compound 10] | – | 7.00 to 9.00 | > 500 | – | 7.00 to 9.00 | 100 to 500
C[C@H](CCC(C)(C)O)[C@H]1CC[C@H]2[C@@H]3CC=C4C[C@@](C)(O)CC[C@]4(C)[C@H]3C(C)(O)C[C@]12C (some centres unmarked) [Compound 11] | B (“B” indicates potentiation of >100%) | 6.00 to 6.30 | 100 to 500 | B (“B” indicates potentiation of >100%) | 5.00 to 6.00 | 100 to 500

Reference: US11279730B2, “Oxysterols and methods of use thereof” (Sage Therapeutics, Inc., priority 2016, dated 2022)
